Patent US20030022923A1, “Methods for treatment of sickle cell anemia” (Medinox, Inc., priority 2001, published 2003)

Key:
[1] = Pharmacokinetic study of vanillin-thiazolidine adduct and vanillin by oral administration in rats (vanillin in blood by HPLC); assay type: in vivo, Sprague-Dawley rats; conditions: oral gavage, blood concentration-time curves 2-180 min
Protocol: Sixteen Sprague-Dawley rats (male, 200-300 g) were catheterized at the carotid at least 12 hours before drug administration and the catheter was flushed with heparin solution to prevent line clotting. […] Blood samples were collected by unhooking the flush syringe and letting the blood flow freely into centrifuge tubes at predetermined time points, i.e., 2, 5, 10, 15, 30, 45, 60, 90, 120 and 180 minutes after gavage. To each 100 μl of blood sample was added 400 μl of perchloric acid in a centrifuge tube. After vigorously vortexing, the samples in centrifuge tubes were spun down at 13,000 rpm for 10 min.
A striking difference was noted between the pharmacokinetic profiles of vanillin-thiazolidine and of unmodified vanillin.
Noncompartmental pharmacokinetic analysis was then carried out using WinNolin (Pharsight Inc., Mountain View, Calif.) and the results are summarized in Table 1, below. […] The maximum concentration at 2 minutes (Cmax) was also approximately 4 times higher in the former compared to the latter.

[2] = cited from earlier work
hemoglobin S = hemoglobin S (Homo sapiens, UniProt P68871+P69905, E7V); conditions: in solution and in intact red cells; cited from earlier work
[3] = orally administered; extensive metabolism in the intestines and liver; cited from earlier work
[4] = Hydrophobicity compared with vanillin; assay type: physicochemical
From the text: It is well known that vanillin can be extensively metabolized by intestinal bacteria and the liver (Strand and Scheline, supra). It is likely that the vanillin-derived thiazolidine is not easily metabolized by the same routes.

hydrophobicity relative to vanillin [4]	Compound	vanillin levels in the blood and half-life (FIG. 1 profile, in words) [1]	body and organ weights, hemotology, histopathology, test vs control rats ([2]; 1.0% of the diet for 16 weeks, 2.0% and 5.0% for 1 year, or 0.5%, 1.0% and 2.0% for 2 years)	toxicity on extended feeding ([2]; rats, vanillin at high levels for extensive periods)	oxygen affinity of hemoglobin S (hemoglobin S)	oral bioavailability [3]
–	COc1cc(C=O)ccc1O [Vanillin, 4-hydroxy-3-methoxybenzaldehyde]	low with a short half-life	no significant differences	No toxicity was observed	marked increase in oxygen affinity	poorly bioavailable
more hydrophobic than vanillin	CCOC(=O)C1CSC(c2ccc(O)c(OC)c2)N1 (stereo not shown) [Vanillin-Thiazolidine Adduct, Ethyl 2-(4-hydroxy-3-methoxyphenyl)-1,3-thiazolidine-4-carboxylate]	higher, with a much longer half-life	–	–	–	–
